Data published in US7846972B2, “Multimeric oleamide derivative having connexin-26 inhibiting potency and use thereof in cancer therapy, etc” (The New Industrial Research Organization, priority 2004, dated 2010).
“Also recorded” adds a separate entry of the source.

Experiments:
[1] = target: T1, rat connexin 43 (Cx43) (Rattus norvegicus, UniProt P08050); test: Dye-transfer assay, GJIC through connexin 43 (HeLa-Cx43); type: cell-based; settings: for connexin 43 inhibitory activity: HeLa-Cx43, 20 μM, result in words
T1 construct: expressed in transfected cells; host or cells: HeLa cell subclone HeLa-Cx43 (human uterocervical squamous carcinoma)
T1 sequence (P08050 2-382 limits assumed): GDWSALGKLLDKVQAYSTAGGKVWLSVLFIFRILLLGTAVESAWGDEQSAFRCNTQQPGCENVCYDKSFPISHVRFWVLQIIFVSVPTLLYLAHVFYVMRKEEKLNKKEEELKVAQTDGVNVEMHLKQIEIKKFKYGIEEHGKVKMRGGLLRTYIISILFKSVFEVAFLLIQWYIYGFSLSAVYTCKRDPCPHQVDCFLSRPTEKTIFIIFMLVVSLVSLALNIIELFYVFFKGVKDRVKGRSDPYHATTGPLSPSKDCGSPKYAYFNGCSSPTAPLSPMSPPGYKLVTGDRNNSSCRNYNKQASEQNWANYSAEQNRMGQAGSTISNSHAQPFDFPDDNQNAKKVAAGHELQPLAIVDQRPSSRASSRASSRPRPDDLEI
Procedure: (§1) Next, with respect to each oleamide derivative synthesized by the method described above, we studied whether each derivative inhibited connexin 26 (in other words, whether each one inhibited the transfer of a substance from one cell to another through a gap junction formed by the connexin 26). The experimental method was the same as that described in International Publication WO 2004/060398. Each gap junction intercellular communication (GJIC) score of each test substance was evaluated by dye-transfer assay.
(§2) In the same manner as in the method described in the above-mentioned publication, human uterocervical squamaous carcinoma cells (HeLa cells) were used for the experiment. More specifically, HeLa cell subclones (HeLa-Cx26 and HeLa-Cx43) were used, and they stably expressed rat connexin 26 (Cx26) and rat connexin 43 (Cx43), respectively. All cells (including those in the examples described later) were incubated in Dulbecco's modified eagle's medium (DMEM) with 10% fetal calf serum (FCS) added.
(§3) A day before the assay, the HeLa-Cx26 and HeLa-Cx43 cells each were suspended individually in DMEM containing 10% FCS. The respective cells were divided to be cultured as donor cells and recipient cells. The recipient cells were cultured in a culture dish with a diameter of 3 cm and were adjusted to yield subconfluent monolayers at the time of assay.
In the assay, first, both the dyes of calcein (gap junction-permeable) and DiI (gap junction-impermeable) were added to the culture of donor cells at concentrations of 10 μM and 2 μM, respectively, and incubated for one hour. Double-labeled donor cells were trypsinized and washed three times with phosphate-buffered saline. Thereafter each single donor cell was overlaid gently on unlabeled recipient cells. It took one hour for the donor cell to settle over a monolayer. […]
In FIG. 2, since the donor cell indicated with a “*” mark contains both the calcein (green fluorescence) and DiI (red fluorescence), it is shown in yellow in the original drawing. […] With such an assay, the GJIC score of each test substance is evaluated as follows.
(§4) That is, the evaluation was made as “0” where no dye-coupling of a donor cell is found, “1” where the dye-coupling of a donor cell to an adjacent recipient cell is found, “2” and “3” in cases where calcein that has been transferred to the adjacent recipient cell is transferred to the second and third adjacent cells in a direction away from the donor cell, respectively, and so on. Also, as shown with arrows in the drawing, the extent of cell dyeing was evaluated with four levels of 0.25, 0.5, 0.75, and 1.0 as intermediate levels.
(§5) Such an assay was carried out three times repeatedly. […] Then the average value and standard deviation of the GJIC scores of the respective test substances were calculated. […]

[2] = target: T2, rat connexin 26 (Cx26) (Rattus norvegicus, UniProt P21994); test: Dye-transfer assay, GJIC through connexin 26 (HeLa-Cx26); type: cell-based; settings: for connexin 26 inhibitory activity: result in words
T2 construct: expressed in transfected cells; host or cells: HeLa cell subclone HeLa-Cx26 (human uterocervical squamous carcinoma)
Procedure: as §1, §2, §3
In the assay, first, both the dyes of calcein (gap junction-permeable) and DiI (gap junction-impermeable) were added to the culture of donor cells at concentrations of 10 μM and 2 μM, respectively, and incubated for one hour. Double-labeled donor cells were trypsinized and washed three times with phosphate-buffered saline. Thereafter each single donor cell was overlaid gently on unlabeled recipient cells. It took one hour for the donor cell to settle over a monolayer. […] Dye transfer from a donor cell to an adjacent recipient cell through a gap junction was observed.
In order to evaluate the inhibitory activity of each test substance with respect to the dye-coupling, one hour after the donor cells were planted, oleamide and the multimeric oleamide derivatives described above each were dissolved in ethanol, and 10 μL thereof was then added to each culture dish so that the final concentration was 20 μM. For control, ethanol diluted 1000 times was added to a culture dish.
In FIG. 2, since the donor cell indicated with a “*” mark contains both the calcein (green fluorescence) and DiI (red fluorescence), it is shown in yellow in the original drawing. Furthermore, when gap junction-permeable calcein is transferred to a recipient cell through a gap junction by the dye coupling, this cell is shown in green. With such an assay, the GJIC score of each test substance is evaluated as follows.
as §4, §5

[3] = tested on: Az521 cells; test: Cytotoxicity assay (cell growth inhibitory potential), trypan blue cell count; type: cell-based, human; settings: Az521 cells in culture, 6-48 hours, FIG. 6
Procedure: In order to examine the cytotoxicity (cell growth inhibitory potential) of MI-22, approximately 1×10^5 Az521 cells, which were human gastric cancer cells, were plated in each petri dish with a diameter of 3.5 cm and were cultured in the presence or absence (control) of MI-22. Then 6, 12, 24, 36, and 48 hours after the start of culture, the cells in each petri dish were taken off with trypsin-EDTA and then centrifuged. Thereafter the cells were dissolved in 10% FBS-containing DMEM, and then 10 μL of trypan blue was added to 10 μL thereof. After that, the number of cells was counted by the use of a counting chamber. The results are shown in the graphs in FIG. 6. The vertical axis indicates the number of cells, and the horizontal axis indicates the time. The graphs show averages of the results of experiments performed three times.

[4] = Solubility in organic solvent (handling property); type: physicochemical
[5] = tested on: BL6 cells (substrains of B16 mouse melanoma cells); type: in vivo
Procedure: The experiment was carried out by the same method as that described in International Publication WO 2004/060398. That is, after subcutaneously inoculating 1×10^5 BL6 cells (substrains of B16 mouse melanoma cells) to a planter of each 4-week-old C57BL/6 mouse, the mice were classified into two groups.
(1) MI-22 administration group: a group of mice subjected to intraperitoneal injection of MI-22 (10 mg) dissolved in olive oil (10 mL) so as to be 0.01 mL per 1 g of the weight of a mouse, once a day (about 0.2 mL per administration) on consecutive days
(2) Nontreatment (Nt) group: a group of mice subjected to no drug administration/treatment by injection.
This treatment was carried out on consecutive days from the next day of the BL6 cells inoculation. When tumors that had formed at the inoculation sites grew to have diameters of about 7 mm, the legs with the tumors were removed by amputation at the knee joints. Then the above-mentioned treatment was carried out for another two days after the amputation. Thereafter the mice were fed without being treated. Four weeks after the amputations at the knee joints, the mice were euthanized, and metastasized tubercles that had formed at the pleura surface in the left and right lungs (the number of foci that metastasized to the lungs) were counted visually. An evaluation was made using 15 mice per each group.

[6] = tested on: Az521 cells; test: Cancer growth inhibition (antitumor effect), Az521 cells implanted subcutaneously in nude mice; type: in vivo, mouse
Procedure: Az521 cells, which were human gastric cancer cells, were implanted subcutaneously into the back of each nude mouse. Then the cancer growth inhibitory effect (antitumor effect) provided by MI-22 peritoneal administration was examined. More specifically, 1-2×10^5 Az521 cells were injected subcutaneously into the back of each 4-week-old BALB/c nude mouse (nu/nu). Three days before the subcutaneous implantation, 0.1 mL of a solution containing MI-22 (10 mg) dissolved in olive oil (10 mL) was injected intraperitoneally. After the subcutaneous implantation, MI-22 was administered intraperitoneally in the same manner twice a week. For the control mice group, no drug administration/treatment by injection was carried out.
The sizes of tumors formed after the subcutaneous implantation were observed, and then the antitumor effect of MI-22 was evaluated with the weight of the tumors being measured over time. The results are shown in the graph in FIG. 7. The vertical axis indicates the weight (mg) of tumors, and the horizontal axis indicates the number of days after the subcutaneous implantation. The average values of six tumors are shown with respect to three nude mice.

[7] = HeLa-Cx26, 20 μM, dye-transfer assay

**Q.** Which “connexin 43 inhibitory activity” value [1] does the source give for `CCCCCCCC/C=C\CCCCCCCC(=O)NCCCNC(=O)CCCCCCC/C=C\CCCCCCCC` [MI-45, N^1-[(Z)-3-Octadec-9-enoylaminopropyl]-(Z)-9octadecenamide] here?
**A.** Its value is “no connexin 43 inhibitory activity; also recorded: hardly inhibited the function of connexin 43”.

**Q.** What about the “connexin 26 inhibitory activity” value [2, 7] of the same compound?
**A.** Its value is “strong connexin 26 inhibitory activity; also recorded: strong connexin 26 inhibitory activities”.

**Q.** Which “connexin 43 inhibitory activity” value [1] does the source give for `CCCCCCCC/C=C\CCCCCCC(CCCCCC(CCCCCC/C=C\CCCCCCCC)C(=O)N(CC)CC)C(=O)N(CC)CC` (stereo not drawn) [MI-39, N^1,N^1,N^9,N^9-Tetraethyl-2,8-di[(Z)-7-hexadecenyl]nonanediamide] here?
**A.** The value was “no connexin 43 inhibitory activity; also recorded: hardly inhibited the function of connexin 43”.

**Q.** And the “connexin 26 inhibitory activity” value [2, 7]?
**A.** The value was “strong connexin 26 inhibitory activity; also recorded: strong connexin 26 inhibitory activities”.

**Q.** For `CCCCCCCC[C@H]1O[C@H]1CCCCCCCC(=O)NCCCCN(CCCNC(=O)CCCCCCC[C@@H]1O[C@@H]1CCCCCCCC)C(=O)CCCCCCC[C@@H]1O[C@@H]1CCCCCCCC` (relative stereo) [MI-51, N^1-{3-[8-{(2S*,3R*)-3-Octyl-oxiranyl}-octanoyl]-N-[4-{8[(2S*,3R*)-3-octyl-oxiranyl]-octanoylamino}-butyl]-aminopropyl}-{8-(2S*,3R*)-3-octyl-oxiranyl}octanamide], which “connexin 26 inhibitory activity as compared to the control by visual observation” value ([2]; HeLa-Cx26, 20 μM, visual observation) is on record?
**A.** The value was “found to have a connexin 26 inhibitory activity”.

**Q.** Which “cytotoxicity (cell growth inhibitory potential), number of cells vs control” value [3] does the source give for `CCCCCCCC/C=C\CCCCCCC(CCCC(CCCCCC/C=C\CCCCCCCC)C(=O)N(CC)CC)C(=O)N(CC)CC` (stereo not drawn) [MI-22, N^1,N^1,N^7,N^7-Tetraethyl-2,6-di[(Z)-7-hexadecenyl]-heptanediamide] here?
**A.** Its value is “no significant difference between MI-22 and control; also recorded: not found”.

**Q.** And the “solubility in an organic solvent” value [4]?
**A.** Its value is “dissolves well in an organic solvent”.

**Q.** What about the “connexin 43 inhibitory activity” value [1] of the same compound?
**A.** Its value is “no connexin 43 inhibitory activity; also recorded: hardly inhibited the function of connexin 43; also recorded: no effect of inhibiting connexin 43 was found”.

**Q.** And the “GJIC score obtained through connexin 43” value ([1]; HeLa-Cx43, final concentration 20 μM, FIG. 3)?
**A.** Its value is “almost the same as that of a control”.

**Q.** And the “spontaneous metastasis of cancer vs nontreatment (Nt) group, result in words” value ([5]; C57BL/6 mice, intraperitoneal once a day)?
**A.** Its value is “inhibited/suppressed spontaneous metastasis of cancer conspicuously”.

**Q.** And the “decrease of the number of metastatic foci in the lungs vs nontreatment (Nt) group” value ([5]; C57BL/6 mice, intraperitoneal once a day, 4 weeks after amputation, FIG. 4)?
**A.** Its value is 80%.

**Q.** And the “number of mice with lungs with slight spontaneous metastasis” value ([5]; of 15 mice per group, FIG. 5 (Nt group: eight))?
**A.** Its value is “six”.

**Q.** And the “number of mice with lungs with considerable spontaneous metastasis” value ([5]; of 15 mice per group, FIG. 5 (Nt group: five))?
**A.** The value was “two”.

**Q.** What about the “number of mice with lungs with no spontaneous metastasis of cancer” value ([5]; of 15 mice per group, FIG. 5 (Nt group: two)) of the same compound?
**A.** The value was “seven”.

**Q.** What about the “connexin 26 inhibitory activity” value [2, 7] of the same compound?
**A.** Its value is “strong connexin 26 inhibitory activity; also recorded: strong connexin 26 inhibitory activities”.

**Q.** And the “GJIC score obtained through connexin 26” value ([2]; HeLa-Cx26, final concentration 20 μM, dye-transfer assay, FIG. 3)?
**A.** The value was at most 2.

**Q.** And the “growth of tumors (weight of tumors) vs control mice group” value ([6]; BALB/c nude mice, intraperitoneal twice a week, FIG. 7)?
**A.** Its value is “suppressed conspicuously”.

**Q.** What about the “increase in the volume of tumors vs nontreatment mice group (NT)” value ([6]; nude mice, intraperitoneal, FIG. 8) of the same compound?
**A.** Its value is “suppressed conspicuously”.
